Biological target: T1, Tyrosine-protein phosphatase non-receptor type 11 (Homo sapiens, UniProt Q06124)
T1 sequence (Q06124 whole entry): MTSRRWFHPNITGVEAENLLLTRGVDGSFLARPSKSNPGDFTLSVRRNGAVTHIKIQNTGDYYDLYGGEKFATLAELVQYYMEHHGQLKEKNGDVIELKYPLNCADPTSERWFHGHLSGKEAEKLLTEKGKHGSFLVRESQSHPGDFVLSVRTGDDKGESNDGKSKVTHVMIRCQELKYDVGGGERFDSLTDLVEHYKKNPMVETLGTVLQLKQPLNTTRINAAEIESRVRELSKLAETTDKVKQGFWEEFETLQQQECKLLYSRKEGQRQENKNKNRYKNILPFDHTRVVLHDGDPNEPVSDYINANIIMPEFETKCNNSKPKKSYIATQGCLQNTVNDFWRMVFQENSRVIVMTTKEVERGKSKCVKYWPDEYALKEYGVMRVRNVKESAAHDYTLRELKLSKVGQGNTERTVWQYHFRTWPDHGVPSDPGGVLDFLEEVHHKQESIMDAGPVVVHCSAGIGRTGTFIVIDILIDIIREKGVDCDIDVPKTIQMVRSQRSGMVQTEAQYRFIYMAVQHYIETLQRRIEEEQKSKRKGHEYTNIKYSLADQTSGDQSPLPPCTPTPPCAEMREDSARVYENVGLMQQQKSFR
Assay: SHP2 Allosteric Inhibition Assay
Procedure: The phosphatase reaction was conducted in 384-well black polystyrene plates (Corning, Cat #3575) with flat bottom, low edge and non-binding surface at room temperature and 25 μl final volume of the following buffer condition: 60 mM HEPES, pH 7.2, 75 mM NaCl, 75 mM KCl, 1 mM EDTA, 0.05% P-20, 5 mM DTT.The following experiments were conducted to monitor the SHP2 inhibition by the compounds (at concentrations of 0.0003-100 μM) in this invention:Wherein, incubate 0.5 nM SHP2 with 0.5 μM peptide IRS1_pY1172 (dPEG8) pY1222 (sequence: H2N-LN (pY) IDLDLV (dPEG8) LST (pY) ASINFQK-amide) (SEQ ID NO: 1) (WO2016/203406A1). After incubation at 25° C. for 30-60 minutes, the alternative substrate DiFMUP (Invitrogen, cat #D6567) was added to the reaction and incubated at 25° C. for 30 minutes. The reaction was then […] by adding 5 μL of a 160 μM bpV (Phen) solution (Enzo Life Sciences cat #ALX-270-204). The fluorescence signal was monitored using a microplate reader (VARIOSKAN LUX, Thermo) with excitation and emission wavelengths of 340 nm and 450 nm, respectively. The inhibitory dose-response curve is analyzed using a standardized IC50 regression curve based on control-based normalization.

IC50: 2.62 nM
Structure (SMILES): C[C@@H]1OCC2(CCN(c3cnc(Sc4cccc(-c5cscn5)c4Cl)cn3)CC2)[C@@H]1N [US11827644, Example 33]

— BindingDB's records for patent US11827644 (Suzhou Genhouse Pharmaceutical, 2023)
